Reference: PubChem BioAssay (NCI)
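Compound exposure: 48 hours, 5 concentrations, 96-well plates. TGI: total growth inhibition.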

How the values were obtained:
Assay in all cases: DTP human tumour cell line panel, 48 h
786-0 renal = tested on: 786-0 renal
A549 NSCLC = tested on: A549 NSCLC
ACHN renal = tested on: ACHN renal
HCC-2998 colon = tested on: HCC-2998 colon
HCT-116 colon = tested on: HCT-116 colon
HCT-15 colon = tested on: HCT-15 colon
IGROV1 ovarian = tested on: IGROV1 ovarian
KM12 colon = tested on: KM12 colon
MCF7 breast = tested on: MCF7 breast
MDA-N = tested on: MDA-N
NCI-H460 lung = tested on: NCI-H460 lung
NCI/ADR-RES ovarian = tested on: NCI/ADR-RES ovarian
OVCAR-3 ovarian = tested on: OVCAR-3 ovarian
SK-OV-3 ovarian = tested on: SK-OV-3 ovarian
SN12C renal = tested on: SN12C renal
SNB-19 CNS = tested on: SNB-19 CNS
SW-620 colon = tested on: SW-620 colon
T-47D breast = tested on: T-47D breast
UO-31 renal = tested on: UO-31 renal

Compound	TGI (786-0 renal) [µM]	TGI (A549 NSCLC) [µM]	TGI (ACHN renal) [µM]	TGI (HCC-2998 colon) [µM]	TGI (HCT-116 colon) [µM]	TGI (HCT-15 colon) [µM]	TGI (IGROV1 ovarian) [µM]	TGI (KM12 colon) [µM]	TGI (MCF7 breast) [µM]	TGI (MDA-N) [µM]	TGI (NCI-H460 lung) [µM]	TGI (NCI/ADR-RES ovarian) [µM]	TGI (OVCAR-3 ovarian) [µM]	TGI (SK-OV-3 ovarian) [µM]	TGI (SN12C renal) [µM]	TGI (SNB-19 CNS) [µM]	TGI (SW-620 colon) [µM]	TGI (T-47D breast) [µM]	TGI (UO-31 renal) [µM]
NNC(=O)c1ccccc1Nc1ccccc1C(=O)NN	> 100	> 100	> 100	> 100	> 100	> 100	> 100	> 100	> 100	> 100	> 100	> 100	> 100	> 100	> 100	> 100	> 100	> 100	> 100
CC(C)(C)[Si](C)(C)OCCCCC1CC2(S(=O)(=O)C3=CC=C=C=C3)ON1CC2S(=O)(=O)c1ccccc1 (stereo not drawn)	> 100	> 100	> 100	> 100	> 100	> 100	> 100	> 100	> 100	> 100	> 100	> 100	> 100	> 100	> 100	> 100	> 100	> 100	> 100
CCOC(=O)c1sc2nc(SC)nc3c2c1N=CN3c1ccccc1Cl	33.6	> 100	55.3	> 100	> 100	> 100	> 100	> 100	> 100	> 100	> 100	> 100	> 100	> 100	> 100	> 100	> 100	> 100	> 100
Cc1cc2c(c(C=Nc3ccc([N+](=O)[O-])cc3)c1)OC1(C=C2)Oc2ccccc2C(=O)N1C (stereo not drawn)	54.3	> 100	50.5	36.2	30.9	39.4	56.6	46.2	46	> 100	42.7	49.1	60.9	59.8	46.2	> 100	81.1	26.9	42.3
COC(=O)[C@@H]1C[C@H]([Se]c2ccccc2)CN1S(=O)(=O)c1ccc(C)cc1	> 100	> 100	> 100	> 100	> 100	> 100	> 100	> 100	> 100	> 100	> 100	> 100	> 100	> 100	> 100	> 100	> 100	> 100	> 100
NS(=O)(=O)c1ccc(NNc2c3ccccc3nc3ccccc23)cc1	17.4	25.6	19.9	17.6	15.5	15.5	19.1	16.5	15.8	17.5	21.3	24.5	15	24.5	23.1	25.7	16.6	20.4	18.1
Cc1cccc(N=Nc2c(C)nn(C(=O)CC(=O)Nc3ccccc3)c2C)c1	> 100	> 100	> 100	> 100	> 100	> 100	> 100	> 100	> 100	> 100	> 100	> 100	> 100	> 100	> 100	> 100	> 100	> 100	> 100
CC(=O)CCNc1ccc(-c2cc(-c3ccc(N(C)C)cc3)nc3ccc4ccccc4c23)cc1	> 100	> 100	> 100	> 100	> 100	> 100	> 100	> 100	> 100	> 100	> 100	> 100	> 100	> 100	> 100	> 100	> 100	> 100	> 100
O=C1OCC2(CO1)CC1C=CC2C1 (stereo not drawn)	> 100	> 100	> 100	> 100	> 100	> 100	> 100	> 100	> 100	> 100	> 100	> 100	> 100	> 100	> 100	> 100	> 100	> 100	> 100
CN(C)CCn1c(=O)c2ccc3c4c(nn3CCN(C)C)c3cc(N)ccc3n(c1=O)c24	0.0573	0.114	0.428	1.04	0.0716	0.222	4.45	0.63	1.17	0.0752	0.0904	0.749	0.164	0.621	0.069	0.455	1.87	0.849	0.0501
COc1cccc2c(NNc3ccccc3)c3ccc([N+](=O)[O-])cc3nc12	73.3	> 100	> 100	> 100	> 100	> 100	> 100	46.1	> 100	> 100	> 100	> 100	> 100	> 100	> 100	> 100	> 100	> 100	61
CC(=O)OCCCCn1cnc2nc(Nc3ccccc3)nc(Cl)c21	> 100	> 100	> 100	> 100	> 100	> 100	> 100	> 100	> 100	> 100	> 100	> 100	> 100	> 100	> 100	> 100	> 100	> 100	> 100
